Measured values reported in the supplement of paper PMC11919725.

What was measured:
[1] = test system: Jurkat; experiment: metabolic activity relative to DMSO, 18 h (ratio); higher = more viable
Summary of the method: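 Naive or CD3/CD28 Dynabead-activated (48 h) primary CD4+/CD8+ T cells, or Jurkat cells, received compound at 1 nM–10 µM for 18 h. Readout used alamarBlue at 10% v/v final, with fluorescence taken after 3.5 h. Metabolic activity is given relative to mean vehicle control values.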

[2] = test system: Jurkat; experiment: confluency relative to DMSO, 18 h (ratio); higher = more viable
Summary of the method: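 Naive or CD3/CD28 Dynabead-activated (48 h) primary CD4+/CD8+ T cells, or Jurkat cells, received compound at 1 nM–10 µM for 18 h at 37 °C. Confluency was measured by IncuCyte phase-contrast imaging with the Basic Analyzer and normalised to the mean of the control wells. Imaging used 100 µl of suspension per well in 96-well plates with IncuCyte Cytotox Dye and alamarBlue, at ×10 with five images per well every hour for 3 h.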

[3] = test system: Jurkat; experiment: cytotoxicity relative to DMSO, 18 h (ratio); higher = less cell death (drugs called cytotoxic fall below 1)
Summary of the method: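 Cytotoxicity was measured by IncuCyte fluorescence imaging after confluency correction and normalisation to mean control values. Cells (Jurkat, or primary CD4+/CD8+ T cells that were naive or pre-activated 48 h with CD3/CD28 Dynabeads) received compound at 1 nM–10 µM in log10 steps for 18 h at 37 °C, 5% CO2. Imaging used ×10 magnification, five images per well, taken hourly over 3 h in 96-well plates with 250 nM final IncuCyte Cytotox Dye in 100 µl of suspension.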

SMILES: COc1cc2c(c(OC)c1OC)-c1ccc(OC)c(=O)cc1C(NC(C)=O)CC2 (stereo not given) [Colchicine]
- metabolic activity ([1]; 1 nM): 0.862
- metabolic activity ([1]; 10 nM): 0.83
- metabolic activity ([1]; 100 nM): 0.595
- metabolic activity ([1]; 1000 nM): 0.519
- metabolic activity ([1]; 10000 nM): 0.476
- confluency ([2]; 1 nM): 1
- confluency ([2]; 10 nM): 1.03
- confluency ([2]; 100 nM): 0.72
- confluency ([2]; 1000 nM): 0.663
- confluency ([2]; 10000 nM): 0.637
- cytotoxicity ([3]; 1 nM): 0.985
- cytotoxicity ([3]; 10 nM): 1.19
- cytotoxicity ([3]; 100 nM): 0.649
- cytotoxicity ([3]; 1000 nM): 0.552
- cytotoxicity ([3]; 10000 nM): 0.539

SMILES: COc1c(OCCCN2CCOCC2)ccc2c3n(c(=NC(=O)c4cnc(N)nc4)nc12)CCN3 [Copanlisib]
- metabolic activity ([1]; 1 nM): 1.04
- metabolic activity ([1]; 10 nM): 1.06
- metabolic activity ([1]; 100 nM): 0.753
- metabolic activity ([1]; 1000 nM): 0.523
- metabolic activity ([1]; 10000 nM): 0.435
- confluency ([2]; 1 nM): 0.918
- confluency ([2]; 10 nM): 1.05
- confluency ([2]; 100 nM): 0.903
- confluency ([2]; 1000 nM): 0.789
- confluency ([2]; 10000 nM): 0.932
- cytotoxicity ([3]; 1 nM): 0.843
- cytotoxicity ([3]; 10 nM): 1.05
- cytotoxicity ([3]; 100 nM): 0.885
- cytotoxicity ([3]; 1000 nM): 0.619
- cytotoxicity ([3]; 10000 nM): 0.712

SMILES: CC(Oc1cc(-c2cnn(C3CCNCC3)c2)cnc1N)c1c(Cl)ccc(F)c1Cl (stereo not given) [Crizotinib]
- metabolic activity ([1]; 1 nM): 0.831
- metabolic activity ([1]; 10 nM): 0.944
- metabolic activity ([1]; 100 nM): 0.836
- metabolic activity ([1]; 1000 nM): 0.975
- metabolic activity ([1]; 10000 nM): 0.882
- confluency ([2]; 1 nM): 1.1
- confluency ([2]; 10 nM): 0.657
- confluency ([2]; 100 nM): 1
- confluency ([2]; 1000 nM): 0.919
- confluency ([2]; 10000 nM): 0.771
- cytotoxicity ([3]; 1 nM): 0.908
- cytotoxicity ([3]; 10 nM): 0.369
- cytotoxicity ([3]; 100 nM): 1.08
- cytotoxicity ([3]; 1000 nM): 0.848
- cytotoxicity ([3]; 10000 nM): 0.768

SMILES: O=P1(N(CCCl)CCCl)NCCCO1 (stereo not given) [Cyclophosphamide]
- metabolic activity ([1]; 1 nM): 1.14
- metabolic activity ([1]; 10 nM): 1.07
- metabolic activity ([1]; 100 nM): 1.04
- metabolic activity ([1]; 1000 nM): 1.02
- metabolic activity ([1]; 10000 nM): 1.03
- confluency ([2]; 1 nM): 1.01
- confluency ([2]; 10 nM): 0.94
- confluency ([2]; 100 nM): 0.948
- confluency ([2]; 1000 nM): 0.977
- confluency ([2]; 10000 nM): 0.951
- cytotoxicity ([3]; 1 nM): 1.16
- cytotoxicity ([3]; 10 nM): 0.989
- cytotoxicity ([3]; 100 nM): 0.959
- cytotoxicity ([3]; 1000 nM): 0.983
- cytotoxicity ([3]; 10000 nM): 0.977

SMILES: CC(C)(C)c1nc(-c2cccc(NS(=O)(=O)c3c(F)cccc3F)c2F)c(-c2ccnc(N)n2)s1 [Dabrafenib]
- metabolic activity ([1]; 1 nM): 0.973
- metabolic activity ([1]; 10 nM): 1.02
- metabolic activity ([1]; 100 nM): 0.992
- metabolic activity ([1]; 1000 nM): 0.91
- metabolic activity ([1]; 10000 nM): 0.73
- confluency ([2]; 1 nM): 0.98
- confluency ([2]; 10 nM): 1
- confluency ([2]; 100 nM): 0.973
- confluency ([2]; 1000 nM): 0.971
- confluency ([2]; 10000 nM): 0.965
- cytotoxicity ([3]; 1 nM): 0.941
- cytotoxicity ([3]; 10 nM): 0.994
- cytotoxicity ([3]; 100 nM): 0.966
- cytotoxicity ([3]; 1000 nM): 0.846
- cytotoxicity ([3]; 10000 nM): 0.863

SMILES: Cn1c(=O)n(-c2ccc(C(C)(C)C#N)cc2)c2c3cc(-c4cnc5ccccc5c4)ccc3ncc21 [Dactolisib]
- metabolic activity ([1]; 1 nM): 0.966
- metabolic activity ([1]; 10 nM): 0.894
- metabolic activity ([1]; 100 nM): 0.652
- metabolic activity ([1]; 1000 nM): 0.601
- metabolic activity ([1]; 10000 nM): 0.578
- confluency ([2]; 1 nM): 0.986
- confluency ([2]; 10 nM): 0.909
- confluency ([2]; 100 nM): 0.978
- confluency ([2]; 1000 nM): 1.05
- confluency ([2]; 10000 nM): 0.946
- cytotoxicity ([3]; 1 nM): 0.958
- cytotoxicity ([3]; 10 nM): 0.809
- cytotoxicity ([3]; 100 nM): 0.746
- cytotoxicity ([3]; 1000 nM): 0.927
- cytotoxicity ([3]; 10000 nM): 0.822

SMILES: Cc1nc(Nc2ncc(C(=O)Nc3c(C)cccc3Cl)s2)cc(N2CCN(CCO)CC2)n1 [Dasatinib]
- metabolic activity ([1]; 1 nM): 1.07
- metabolic activity ([1]; 10 nM): 1.07
- metabolic activity ([1]; 100 nM): 1.01
- metabolic activity ([1]; 1000 nM): 0.989
- metabolic activity ([1]; 10000 nM): 0.845
- confluency ([2]; 1 nM): 0.949
- confluency ([2]; 10 nM): 0.946
- confluency ([2]; 100 nM): 0.958
- confluency ([2]; 1000 nM): 0.965
- confluency ([2]; 10000 nM): 0.91
- cytotoxicity ([3]; 1 nM): 0.993
- cytotoxicity ([3]; 10 nM): 0.967
- cytotoxicity ([3]; 100 nM): 0.979
- cytotoxicity ([3]; 1000 nM): 0.994
- cytotoxicity ([3]; 10000 nM): 0.882

SMILES: CCC(C)(Nc1ccnc(-c2c[nH]c3ncccc23)n1)C(=O)NCC(F)(F)F (stereo not given) [Decernotinib]
- metabolic activity ([1]; 1 nM): 1.08
- metabolic activity ([1]; 10 nM): 1.08
- metabolic activity ([1]; 100 nM): 1.02
- metabolic activity ([1]; 1000 nM): 1.05
- metabolic activity ([1]; 10000 nM): 1.07
- confluency ([2]; 1 nM): 1.03
- confluency ([2]; 10 nM): 1.03
- confluency ([2]; 100 nM): 0.996
- confluency ([2]; 1000 nM): 0.993
- confluency ([2]; 10000 nM): 0.96
- cytotoxicity ([3]; 1 nM): 1.1
- cytotoxicity ([3]; 10 nM): 1.09
- cytotoxicity ([3]; 100 nM): 1.01
- cytotoxicity ([3]; 1000 nM): 1.04
- cytotoxicity ([3]; 10000 nM): 1.03

SMILES: Nc1ncn(C2CC(O)C(CO)O2)c(=O)n1 (stereo not given) [Decitabine]
- metabolic activity ([1]; 1 nM): 1.05
- metabolic activity ([1]; 10 nM): 1.04
- metabolic activity ([1]; 100 nM): 1.02
- metabolic activity ([1]; 1000 nM): 0.948
- metabolic activity ([1]; 10000 nM): 0.867
- confluency ([2]; 1 nM): 1.02
- confluency ([2]; 10 nM): 1.01
- confluency ([2]; 100 nM): 0.986
- confluency ([2]; 1000 nM): 0.972
- confluency ([2]; 10000 nM): 0.939
- cytotoxicity ([3]; 1 nM): 0.966
- cytotoxicity ([3]; 10 nM): 0.964
- cytotoxicity ([3]; 100 nM): 0.922
- cytotoxicity ([3]; 1000 nM): 0.869
- cytotoxicity ([3]; 10000 nM): 0.862

SMILES: CCc1cnn2c(NCc3ccc[n+]([O-])c3)cc(N3CCCCC3CCO)nc12 (stereo not given) [Dinaciclib]
- metabolic activity ([1]; 1 nM): 0.162
- metabolic activity ([1]; 10 nM): 0.147
- metabolic activity ([1]; 100 nM): 0.13
- metabolic activity ([1]; 1000 nM): 0.139
- metabolic activity ([1]; 10000 nM): 0.128
- confluency ([2]; 1 nM): 0.988
- confluency ([2]; 10 nM): 1.02
- confluency ([2]; 100 nM): 0.864
- confluency ([2]; 1000 nM): 0.871
- confluency ([2]; 10000 nM): 1.16
- cytotoxicity ([3]; 1 nM): 0.926
- cytotoxicity ([3]; 10 nM): 1.03
- cytotoxicity ([3]; 100 nM): 0.821
- cytotoxicity ([3]; 1000 nM): 0.989
- cytotoxicity ([3]; 10000 nM): 1.09

SMILES: Cn1cc(-c2ccc(S(=O)(=O)n3ccc(C=CC(=O)Nc4ccccc4N)c3)cc2)cn1 [Domatinostat]
- metabolic activity ([1]; 1 nM): 1.1
- metabolic activity ([1]; 10 nM): 1.12
- metabolic activity ([1]; 100 nM): 1.03
- metabolic activity ([1]; 1000 nM): 0.922
- metabolic activity ([1]; 10000 nM): 0.704
- confluency ([2]; 1 nM): 0.879
- confluency ([2]; 10 nM): 0.91
- confluency ([2]; 100 nM): 0.901
- confluency ([2]; 1000 nM): 1.03
- confluency ([2]; 10000 nM): 0.63
- cytotoxicity ([3]; 1 nM): 0.906
- cytotoxicity ([3]; 10 nM): 0.925
- cytotoxicity ([3]; 100 nM): 0.886
- cytotoxicity ([3]; 1000 nM): 1.06
- cytotoxicity ([3]; 10000 nM): 0.636
